Results published in patent US12410220B2, “Modulation of mammalian cell lineage by synthetic immodulins” (priority 2021, dated 2025).
Like-named read-outs stand apart in the source and are kept apart here. Marks after values point to notes of the source that are not given here. Ends that are not written are not given here. Peptide text beside a SMILES is read from it.

Assays:
[1] = tested on: rat scald-endotoxemia model; experiment: Experiment 5B rat scald-endotoxemia model; type: in vivo, Sprague Dawley rats
Protocol: Experiment 5B. This study explores the effect of immX extensions on sV-nephrilin (SEQ ID NO:31) vs V-nephrilin, as well as in a longer peptide also containing the immX extension (Traumatin-3N1A: SEQ ID NO:35) on in vivo efficacy in a rat scald-endotoxemia model. Animals were treated with peptides using a widely used protocol previously described (see, for example, U.S. Pat. No. 10,369,191). Adult Sprague Dawley rats of both sexes (250-300 gm, Charles River Laboratories, Wilmington, MA, USA) were injected with peptide plus equimolar ferric iron once daily by subcutaneous bolus injection, days 1-7; Treatment group sizes were (n=6): group S=sham-treated; group B=burn+vehicle; group V=burn+1 mg/kg V-nephrilin (V); group sV=burn+1 mg/kg sV-nephrilin (immX3N1sV); group T=burn+1 mg/kg Traumatin-3N1A. The first dose was administered after completion of the scald procedure. Injection volume was 400 uL. Control animals received the same volume of vehicle. On Day 8, animals received a single intraperitoneal injection of 2.5 mg/kg lipopolysaccharide (LPS; Sigma Cat #L-2880) and animals were then monitored by oximeter (MouseOx, Starr Life Sciences) for 4 hours, when respiratory distress (breath distension*breaths/min) was assessed relative to baseline. This was followed by sacrifice and tissue collection as in the published protocol, except that bronchoalveolar lavage (BAL) was collected and cells were recovered from BAL by centrifugation. These cells were stained with fluorescently-labeled antibodies for flow cytometry in order to ascertain granulocyte counts, as shown below. Results of the peptide comparison are presented in the table below. *p<0.05 vs “B” control. #p<0.05 vs “V” group.

[2] = tested on: Pancreatic protease Type I; experiment: Experiment 5A peptide stability to protease degradation; type: in vitro ADME; settings: 20 minutes at 37 degrees C, read-out: percentage of surviving peptide after protease treatment
Protocol: Duplicate wells per dilution point in a 96-well NTA-coated plate (G-Biosciences, St. Louis, MO) charged with ferric chloride were adsorbed with 2 ug imm3N1V (V-nephrilin) or immX3N1 (sV-nephrilin) peptide per well for 30 min at room temperature, washed, then incubated with 100 ul/well of 8 or 2 μg/ml protease (Sigma Catalog #P4630, Pancreatic protease Type I) for 20 minutes at 37 degrees C. Plates were washed with PBS buffer and the remaining peptide bound was measured using an in-house calibrated anti-immodulin ELISA (rabbit polyclonal #2501). The percentages of surviving peptide after 8 or 2 μg/ml protease treatment were, respectively: V-nephrilin (imm3N1V): 57.6±2.3% and 79.0±0.7%; sV-nephrilin (immX3N1): 75.1±2.8% and 90.4±3.4% (p<0.001 at both concentrations). Thus, the immX tripeptide extension at the C-terminus using D-amino acids improved peptide stability to protease degradation.

THP1-Dual monocytes = experiment: THP1-Dual differentiation assay, immX3 peptide plus helper or inhibitor molecule; type: cell-based, human; settings: immX3 peptide (330 nM) in all samples plus helper at the concentration given; immX3 with buffer = 100.0
Protocol: Mammalian cell differentiation assays using THP1-Dual monocytes reporter cell line (Invivogen Inc, San Diego, CA) seeded at 2×10e5 cells per well in 96-well plates and cultured at 37 degrees C. in RPMI-1640 growth medium plus 10% fetal bovine serum and 1% penicillin/streptomycin, then treated for 24 hours with either 100 ng/ml Phorbol 12-myristate 13-acetate (PMA protocol; Cayman Chemical Company, Ann Arbor, MI) or a mixture of IL-4 (100 ng/ml), GM-CSF (100 ng/ml), TNF-alpha (20 ng/ml) and ionomycin (200 ng/ml) (Cytokine protocol; Peprotech, Rocky Hill, NJ). Peptide (330 nM) was then added, and incubation continued for an additional 24 hours. Culture supernatants were then assayed for CCL22. Plates with adherent cells were washed with PBS and assayed for immunoreactivity of surface markers such as CD169, Clec9a, Clec12a or MHCII using fuorescent tag- or biotin-labeled anti-human antibodies purchased from Miltenyi Biotec (Auburn, CA) and a relevant secondary detection reagent, or by fluorescence counts.
The THP1-Dual cell differentiation assay was carried out as described above in Example 2, using immX3 peptide (330 nM) in all samples plus the indicated helper or inhibitor molecule. AU=arbitrary ELISA units. **p<0.01.

[3] = tested on: HFF-1 human fibroblast cell line; experiment: Collagen-1 ELISA in HFF-1 dermal fibroblasts; type: cell-based; settings: peptide 2 uM, 72 hour incubation
Protocol: Immodulin peptides have potential untility in the field of cosmetics. HFF-1 human fibroblast cell line was obtained from the American Type Culture Collection (ATCC). Cells were grown in a T-75 flask in DMEM Medium containing 10% fetal bovine serum and penicillin-streptomycin at 37° C. in a humidified, 5% CO2 incubator. Cells (100 µl, 2,000 cells/well) were plated in a 96-well plate and incubated overnight at 37° C. in a humidified, 5% CO2 incubator. Next day, 10 µl/well of compounds were added (quadruplicate wells). After 72 hour incubation with the compound, supernatants were collected for Collagen-1 ELISA assay and cell viability was measured in a luminometer after the addition of 100 IL/well CellTiterGlo reagent (Promega Inc, Madison, WI) as recommended by the manufacturer. Collagen stimulating activity of immodulin peptides in HFF-1 dermal fibroblasts: Peptides were added to cells at 2 uM. COL1 immunoreactivity was measured in the supernatants of cultured cells by ELISA using a rabbit monoclonal anti-COL1 primary antibody (Abcam, Cambridge, MA). Control (buffer) value of immunoreactivity was set to 100.

[4] = target: T1, AA111-228 DNA-binding domain of RXR-alpha (RXRa-DBD) (Homo sapiens, UniProt P19793); experiment: Experiment 4A binding to RXRa-DBD; settings: 1 ug/well RXRa-DBD; 800 ng/well SA488-labelled peptide, 60 min; background subtracted
T1 construct: purchased Abcam, Cambridge, MA
T1 sequence (P19793 111-228): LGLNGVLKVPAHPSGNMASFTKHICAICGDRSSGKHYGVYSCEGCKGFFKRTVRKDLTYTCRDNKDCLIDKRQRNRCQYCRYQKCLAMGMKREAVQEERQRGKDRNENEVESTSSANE
Protocol: Experiment 4A. Binding of immodulin peptides to AA111-228 DNA-binding domain of RXR-alpha (RXRa-DBD). 1 ug/well recombinant RXRa-DBD (Abcam, Cambridge, MA) was adsorbed to wells of a 96-well plate for 60 minutes at room temperature, then blocked with 200 uL 1% bovine serum albumin (BSA) in PBS buffer overnight. Plate was washed and 800 ng/well Streptavidin-Alexa 488 conjugate (SA488)-labelled immX peptide was added. The plate was incubated for 60 min at room temperature, washed and counted in a standard fluorometer (excitation/emission 485/525 nm). Background (buffer alone) was subtracted.

[5] = Experiment 4D binding to FITC-labelled hyaluronic acid; settings: biotinylated peptide 1 ug/well; 1 ug FITC-labelled hyaluronic acid, 90 minutes
Protocol: (§1) Streptavidin-coated 96-well plates (G-Biosciences, St. Louis, MO) were pre-treated with biotinylated peptides [see Example 1 for key] at 1 ug/well, at room temperature for 60 minutes. The plate was washed with PBS buffer and then 1 ug FITC-labelled heparin or hyaluronic acid in 100 uL PBS buffer was added per well (all tests in quadruplicate). Incubation proceeded for 90 minutes at room temperature, followed by two PBS washes. The plate was read in a standard laboratory fluorometer (488/525 nm exitation/[…]) and the counts normalized for immX3 peptide binding=100. Values statistically above background are shown in bold font. **p<0.05 versus immX3AVD.

[6] = Ferric iron-binding assay of biotinylated immodulin peptides; settings: N-terminally biotinylated peptide, 400 ng per well, 60 min room temperature; immX3AVD = 100
From the text: N-terminally biotinylated versions of the peptides listed below were used in ferric iron-binding assays involving either an Alexa488-labeled streptavidin protocol (Binding Assay 1) or FITC-NTA assay (Binding Assay 2). Fluorescence was standardized to binding with immX3AVD control peptide (100) and the average of multiple experiments using both protocols is shown. P values are shown relative to the control immX3AVD peptide (**<0.05). D-amino acid residues are underlined in the sequences and the extension tripeptide of immX peptides is shown in bold font. Binding Assay 1 was done as follows: NTA coated 96-well plates (G-Biosciences, St. Louis, MO) were charged with ferric chloride and contacted with equimolar biotinylated peptide: streptavidin-A488 complex (400 ng peptide per well) for 60 min at room temperature, washed with phosphate-buffered saline (PBS) and read at 525 nm in a fluorescence counter. Binding Assay 2 was done as follows: Streptavidin coated 96-well plates (G-Biosciences, St. Louis, MO) were contacted with 400 ng peptide per well in PBS buffer for 60 minutes at room temperature, washed in PBS, then contacted with FITC-NTA (TRC, Toronto, Canada) complexed with equimolar ferric chloride (10× molar equivalent per well) for 60 min at room temperature, washed with PBS and read at 525 nm in a fluorescence counter.

[7] = Experiment 4D binding to FITC-labelled heparin; settings: biotinylated peptide 1 ug/well; 1 ug FITC-labelled heparin, 90 minutes
Protocol: as §1

[8] = Day 1, burn + 1 mg/kg peptide plus equimolar ferric iron, subcutaneous once daily
[9] = Day 8, after LPS, burn + 1 mg/kg peptide days 1-7

RGVTEDYLRLETLVQKVVSKGFYKKKQCRPSKGRKRGFCWAVD (cysteines drawn unpaired) [sV-nephrilin]
Plasma IL-6 (pg/ml) [1, 8]: 17.5 ± 9.3* pg/ml | Plasma albumin mg/ml (24 hr IR) [1, 8]: 7.4 ± 1.6* mg/ml | Change in body weight (Pct vs Day 1) ([1]; Day 5, burn + 1 mg/kg peptide plus equimolar ferric iron, subcutaneous once daily): −5.1 ± 3.6* Pct | Respiratory distress (Gp. “S” = 100) ([1]; Day 8, 4 hours after LPS, burn + 1 mg/kg peptide days 1-7): 203 ± 30*# | Wet/dry lung weight (corrected for body weight) ([1]; Day 8, after LPS 2.5 mg/kg ip, burn + 1 mg/kg peptide days 1-7): 7.07 ± 0.48* | BAL His48+ granulocytes (FITC units) [1, 9]: 26.8 ± 4.0* FITC units | BAL fluid IL1-beta (pg/ml) [1, 9]: 67.1 ± 16*# pg/ml | Plasma OHDG (ng/ml) [1, 9]: 1.31 ± 0.6* ng/ml | Plasma creatinine (mg/dL) [1, 9]: 0.73 ± 0.2* mg/dL | remaining at 20 min ([2]; 2 μg/ml protease): 90.4 ± 3.4% | remaining at 20 min ([2]; 8 μg/ml protease): 75.1 ± 2.8%

Leptin: Growth factor class
CD169 (AU) (THP1-Dual monocytes): 103.3 ± 11.6 AU

Transferrin: Fe-binding protein
CD169 (AU) (THP1-Dual monocytes): 126.8 ± 9.3** AU

CSCC[C@H](NC(=O)[C@H](CCCCN)NC(=O)[C@H](CS)NC(=O)[C@H](CCC(N)=O)NC(=O)[C@H](CCCCN)NC(=O)[C@H](CC(C)C)NC(=O)[C@H](CC(N)=O)NC(=O)[C@H](Cc1ccc(O)cc1)NC(=O)[C@H](CC(C)C)NC(=O)CNC(=O)[C@H](Cc1c[nH]cn1)NC(=O)[C@@H](N)CCCCN)C(=O)N[C@@H](CO)C(=O)N[C@@H](CC(C)C)C(=O)N[C@@H](CC(N)=O)C(=O)NCC(=O)N[C@@H](CCC(N)=O)C(=O)N[C@@H](CCCNC(=N)N)C(=O)NCC(=O)N[C@@H](CCC(=O)O)C(=O)N[C@@H](CS)C(=O)N[C@@H](Cc1c[nH]c2ccccc12)C(=O)O [imm2]
COL1 immunoreactivity in supernatants, control (buffer) set to 100 [3]: 109 | Fluorescence, binding to RXRa-DBD [4]: 2±38 | Hyaluronate binding, counts normalized for immX3 peptide binding=100 [5]: 3.1 ± 9.8 | Ferric iron binding, fluorescence standardized to immX3AVD control peptide (100), Avg ± SD [6]: 1.6 ± 0.8** | Heparin binding, counts normalized for immX3 peptide binding=100 [7]: 27.4 ± 22.9

GM-CSF: granulocyte-macrophage colony-stimulating factor; growth factor class
CD169 (AU) (THP1-Dual monocytes): 147.0 ± 15.3** AU

Hyaluronic acid [reference compound]
CD169 (AU) (THP1-Dual monocytes): 110.5 ± 10.2 AU

CSCC[C@H](NC(=O)[C@H](CO)NC(=O)[C@@H](NC(=O)[C@H](CCC(=O)O)NC(=O)[C@H](CS)NC(=O)[C@H](CCC(N)=O)NC(=O)[C@H](CCCNC(=N)N)NC(=O)[C@H](CO)NC(=O)[C@H](Cc1c[nH]cn1)NC(=O)[C@H](Cc1ccc(O)cc1)NC(=O)[C@H](Cc1ccccc1)NC(=O)CNC(=O)[C@H](CC(N)=O)NC(=O)[C@@H](N)CCCCN)[C@@H](C)O)C(=O)N[C@@H](CC(=O)O)C(=O)NCC(=O)N[C@@H](CCC(=O)O)C(=O)N[C@@H](C)C(=O)NCC(=O)N[C@@H](CC(C)C)C(=O)N[C@@H](CS)C(=O)N[C@@H](Cc1c[nH]c2ccccc12)C(=O)O [imm1] (H-KNGFYHSRQCETSMDGEAGLCW-OH; N-terminus and C-terminus assumed)
COL1 immunoreactivity in supernatants, control (buffer) set to 100 [3]: 98 | Fluorescence, binding to RXRa-DBD [4]: 670±85 | Ferric iron binding, fluorescence standardized to immX3AVD control peptide (100), Avg ± SD [6]: 2.5 ± 1.6**

B1: CSF1: colony stimulating factor 1; growth factor class (protein, UniProt P09603 33-554, looked up)
Macrophage colony-stimulating …: EEVSEYCSHMIGSGHLQSLQRLIDSQMETSCQITFEFVDQEQLKDPVCYLKKAFLLVQDIMEDTMRFRDNTPNAIAIVQLQELSLRLKSCFTKDYEEHDKACVRTFYETPLQLLEKVKNVFNETKNLLDKDWNIFSKNCNNSFAECSSQDVVTKPDCNCLYPKAIPSSDPASVSPHQPLAPSMAPVAGLTWEDSEGTEGSSLLPGEQPLHTVDPGSAKQRPPRSTCQSFEPPETPVVKDSTIGGSPQPRPSVGAFNPGMEDILDSAMGTNWVPEEASGEASEIPVPQGTELSPSRPGGGSMQTEPARPSNFLSASSPLPASAKGQQPADVTGTALPRVGPVRPTGQDWNHTPQKTDHPSALLRDPPEPGSPRISSLRPQGLSNPSTLSAQPQLSRSHSSGSVLPLGELEGRRSTRDRRSPAEPEGGPASEGAARPLPRFNSVPLTDTGHERQSEGSFSPQLQESVFHLLVPSVILVLLAVGGLLFYRWRRRSHQEPQRADSPLEQPEGSPLTQDDRQVELPV
CD169 (AU) (THP1-Dual monocytes): 108.0 ± 32.3 AU
